Measured values taken from BindingDB's records for doi:10.1021/ml200284s (2012).

Test: Inhibition of dynamin1-mediated endocytosis in human U2OS cells assessed as inhibition of Texas red-Tf uptake incubated for 30 mins prior to Texas red-Tf addition measured after 8 mins by receptor-mediated endocytosis assay

IC50 [µM] | Compound
18.1 | O=C1N=C(S)SC1=Cc1cc(Cl)cc(Cl)c1
5.9 | C=CCN1C(=O)/C(=C/c2ccc(OCCCN(C)C)cc2)SC1=S
> 100 | O=C(O)CN1C(=O)/C(=C/c2csc3ccc(Cl)cc23)SC1=S
